The target in experiment [1] is T1, Cholecystokinin receptor type A (Homo sapiens, UniProt P32238).
T1 sequence (P32238 whole entry): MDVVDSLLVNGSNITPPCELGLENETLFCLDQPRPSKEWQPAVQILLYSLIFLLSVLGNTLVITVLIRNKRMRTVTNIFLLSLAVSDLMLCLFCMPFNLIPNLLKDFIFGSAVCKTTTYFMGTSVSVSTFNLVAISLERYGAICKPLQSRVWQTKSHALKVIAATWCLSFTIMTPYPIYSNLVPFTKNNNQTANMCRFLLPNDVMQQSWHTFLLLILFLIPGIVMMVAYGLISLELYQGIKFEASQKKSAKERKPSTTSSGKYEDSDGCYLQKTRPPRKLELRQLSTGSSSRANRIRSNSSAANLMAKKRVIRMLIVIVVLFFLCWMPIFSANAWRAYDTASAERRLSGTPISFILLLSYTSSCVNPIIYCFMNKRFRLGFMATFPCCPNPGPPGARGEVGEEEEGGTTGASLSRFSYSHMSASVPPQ
The experiment is described as follows: Compound was tested for its binding affinity towards Cholecystokinin type A receptor in pancreatic membranes. It counts as cell membranes.

For experiment [2], the target named is T2, Gastrin/cholecystokinin type B receptor (Homo sapiens, UniProt P32239).
T2 sequence (P32239 whole entry): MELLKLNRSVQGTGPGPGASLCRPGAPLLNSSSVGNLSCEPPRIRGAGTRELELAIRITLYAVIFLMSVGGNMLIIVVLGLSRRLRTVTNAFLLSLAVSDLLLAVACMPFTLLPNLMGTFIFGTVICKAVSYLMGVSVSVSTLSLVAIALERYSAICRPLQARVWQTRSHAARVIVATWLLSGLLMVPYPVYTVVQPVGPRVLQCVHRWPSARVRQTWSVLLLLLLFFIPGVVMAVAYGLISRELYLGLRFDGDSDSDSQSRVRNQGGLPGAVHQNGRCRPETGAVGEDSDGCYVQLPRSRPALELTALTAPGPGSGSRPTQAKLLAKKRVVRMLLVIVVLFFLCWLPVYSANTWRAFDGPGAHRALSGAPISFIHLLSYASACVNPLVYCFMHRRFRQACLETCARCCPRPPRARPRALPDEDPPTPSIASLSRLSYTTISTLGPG
The experiment is described as follows: Compound was tested for its binding affinity towards Cholecystokinin type B receptor in cortical membranes (CNS). It counts as cell membranes.

Experiment [3] deals with T3, Cholecystokinin receptor type A (Homo sapiens) (UniProt P32238).
T3 sequence (whole entry): T1 sequence (P32238 whole entry)
The experiment is described as follows: Ratio of binding affinity of Cholecystokinin type A receptor […].

The values below come from ChEMBL document CHEMBL1150440, “Tryptophan-norleucine 1,5-disubstituted tetrazoles as cis peptide bond mimics: Investigation of the bioactive conformation of a potent and selective peptide for the cholecystokinin-B receptor” (Bioorg Med Chem Lett, 1993).

Starred links: 1 amine or outer side, 2 acyl side, 3 side chain; linkers in the order of their positions; H or OH if unused. Non-standard residues stand in square brackets, D forms with d. Residues, ends and D or L forms follow the SMILES beside them. X1 = CCCC1C[C@@H](C(=O)[*:2])N([*:1])C1; NMeNle = CCCC[C@H](NC)C(=O)O; Nle = CCCC[C@H](N)C(=O)O Some results are limits rather than exact numbers.

On to `CCCCC(C(=O)OCc1ccccc1)n1nnnc1C(Cc1cn(C(=O)OCc2ccccc2)c2ccccc12)NC(=O)OCc1ccccc1` (stereo not drawn), for which the IC50 in experiment [1] and in experiment [2] was greater than 10 µM throughout.
As for `CCCC[C@@H](C(=O)N[C@@H](CC(=O)O)[C@@H](Cc1ccccc1)C(N)=O)n1nnnc1[C@H](Cc1c[nH]c2ccccc12)NC(=O)CN`, the IC50 (as a rule, the concentration that gives 50% inhibition) in experiment [1] was greater than 10 µM; in experiment [2], 4.53 µM. Further, the Ratio in experiment [3] is greater than 1.9.
`CCCC[C@@H](C(=O)N[C@@H](CC(=O)O)C(=O)N[C@@H](Cc1ccccc1)C(N)=O)N(C)C(=O)[C@H](Cc1c[nH]c2ccccc12)NC(=O)CN` (H-GW[NMeNle]DF-NH2) returned a concentration for half-maximal inhibition (IC50) in experiment [1] greater than 10 µM.
`CCCC[C@H](NC(=O)[C@H](Cc1c[nH]c2ccccc12)NC(=O)CN)C(=O)N[C@@H](CC(=O)O)C(=O)N[C@@H](Cc1ccccc1)C(N)=O` (H-GW[Nle]DF-NH2): the IC50 in experiment [1] amounted to 2.18 µM; in experiment [2], 0.169 µM. Further, the Ratio in experiment [3] stood at 12.9.
For `CCCC1C[C@@H](C(=O)N[C@@H](CC(=O)O)C(=O)N[C@@H](Cc2ccccc2)C(N)=O)N(C(=O)[C@H](Cc2c[nH]c3ccccc23)NC(=O)CN)C1` (stereo partly drawn) (H-GW[X1]DF-NH2) the same measures were 2.7 µM, 0.0019 µM and 1420.
In the case of `CCCC[C@@H](C(=O)N[C@@H](CC(=O)OCc1ccccc1)[C@@H](Cc1ccccc1)C(N)=O)n1nnnc1[C@H](Cc1c[nH]c2ccccc12)NC(=O)CNC(=O)OC(C)(C)C` (mixture of isomers), the IC50 in experiment [1] stood at 0.364 µM; in experiment [2], 4.25 µM. In experiment [3], the Ratio turned out to be 0.09.
In the same order, the values of `CCCC[C@@H](C(=O)N[C@@H](CC(=O)OCc1ccccc1)[C@@H](Cc1ccccc1)C(N)=O)n1nnnc1[C@H](Cc1c[nH]c2ccccc12)NC(=O)OC(C)(C)C` (mixture of isomers) are 0.0367 µM, 1.88 µM and 0.02.
